This is an account of results in patent publication US9549932B2, “2-(morpholin-4-yl)-1,7-naphthyridines” (BAYER PHARMA AKTIENGESELLSCHAFT, priority 2014, dated 2017).

One may read the IC50 as the concentration at which inhibition is half-maximal.

One assay deals with full-length human ATR protein (Homo sapiens (Human), UniProt Q13535). In words: Binding assay ATR (TR-FRET tracer displacement). Particulars: tracer A, TR-FRET; read-out: ATR binding (tracer A) IC50. The method in brief: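 Full-length human GST-ATR co-purified with ATRIP, pre-complexed 30 min at 22 °C with anti-GST-Tb antibody, then pre-bound with compound 10 min. Tracer A or B added (2 µl of 100 nM solution), 30 min at 22 °C.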
Chain of full-length human ATR protein (Q13535 other isoform, or with tags, fused parts or gaps): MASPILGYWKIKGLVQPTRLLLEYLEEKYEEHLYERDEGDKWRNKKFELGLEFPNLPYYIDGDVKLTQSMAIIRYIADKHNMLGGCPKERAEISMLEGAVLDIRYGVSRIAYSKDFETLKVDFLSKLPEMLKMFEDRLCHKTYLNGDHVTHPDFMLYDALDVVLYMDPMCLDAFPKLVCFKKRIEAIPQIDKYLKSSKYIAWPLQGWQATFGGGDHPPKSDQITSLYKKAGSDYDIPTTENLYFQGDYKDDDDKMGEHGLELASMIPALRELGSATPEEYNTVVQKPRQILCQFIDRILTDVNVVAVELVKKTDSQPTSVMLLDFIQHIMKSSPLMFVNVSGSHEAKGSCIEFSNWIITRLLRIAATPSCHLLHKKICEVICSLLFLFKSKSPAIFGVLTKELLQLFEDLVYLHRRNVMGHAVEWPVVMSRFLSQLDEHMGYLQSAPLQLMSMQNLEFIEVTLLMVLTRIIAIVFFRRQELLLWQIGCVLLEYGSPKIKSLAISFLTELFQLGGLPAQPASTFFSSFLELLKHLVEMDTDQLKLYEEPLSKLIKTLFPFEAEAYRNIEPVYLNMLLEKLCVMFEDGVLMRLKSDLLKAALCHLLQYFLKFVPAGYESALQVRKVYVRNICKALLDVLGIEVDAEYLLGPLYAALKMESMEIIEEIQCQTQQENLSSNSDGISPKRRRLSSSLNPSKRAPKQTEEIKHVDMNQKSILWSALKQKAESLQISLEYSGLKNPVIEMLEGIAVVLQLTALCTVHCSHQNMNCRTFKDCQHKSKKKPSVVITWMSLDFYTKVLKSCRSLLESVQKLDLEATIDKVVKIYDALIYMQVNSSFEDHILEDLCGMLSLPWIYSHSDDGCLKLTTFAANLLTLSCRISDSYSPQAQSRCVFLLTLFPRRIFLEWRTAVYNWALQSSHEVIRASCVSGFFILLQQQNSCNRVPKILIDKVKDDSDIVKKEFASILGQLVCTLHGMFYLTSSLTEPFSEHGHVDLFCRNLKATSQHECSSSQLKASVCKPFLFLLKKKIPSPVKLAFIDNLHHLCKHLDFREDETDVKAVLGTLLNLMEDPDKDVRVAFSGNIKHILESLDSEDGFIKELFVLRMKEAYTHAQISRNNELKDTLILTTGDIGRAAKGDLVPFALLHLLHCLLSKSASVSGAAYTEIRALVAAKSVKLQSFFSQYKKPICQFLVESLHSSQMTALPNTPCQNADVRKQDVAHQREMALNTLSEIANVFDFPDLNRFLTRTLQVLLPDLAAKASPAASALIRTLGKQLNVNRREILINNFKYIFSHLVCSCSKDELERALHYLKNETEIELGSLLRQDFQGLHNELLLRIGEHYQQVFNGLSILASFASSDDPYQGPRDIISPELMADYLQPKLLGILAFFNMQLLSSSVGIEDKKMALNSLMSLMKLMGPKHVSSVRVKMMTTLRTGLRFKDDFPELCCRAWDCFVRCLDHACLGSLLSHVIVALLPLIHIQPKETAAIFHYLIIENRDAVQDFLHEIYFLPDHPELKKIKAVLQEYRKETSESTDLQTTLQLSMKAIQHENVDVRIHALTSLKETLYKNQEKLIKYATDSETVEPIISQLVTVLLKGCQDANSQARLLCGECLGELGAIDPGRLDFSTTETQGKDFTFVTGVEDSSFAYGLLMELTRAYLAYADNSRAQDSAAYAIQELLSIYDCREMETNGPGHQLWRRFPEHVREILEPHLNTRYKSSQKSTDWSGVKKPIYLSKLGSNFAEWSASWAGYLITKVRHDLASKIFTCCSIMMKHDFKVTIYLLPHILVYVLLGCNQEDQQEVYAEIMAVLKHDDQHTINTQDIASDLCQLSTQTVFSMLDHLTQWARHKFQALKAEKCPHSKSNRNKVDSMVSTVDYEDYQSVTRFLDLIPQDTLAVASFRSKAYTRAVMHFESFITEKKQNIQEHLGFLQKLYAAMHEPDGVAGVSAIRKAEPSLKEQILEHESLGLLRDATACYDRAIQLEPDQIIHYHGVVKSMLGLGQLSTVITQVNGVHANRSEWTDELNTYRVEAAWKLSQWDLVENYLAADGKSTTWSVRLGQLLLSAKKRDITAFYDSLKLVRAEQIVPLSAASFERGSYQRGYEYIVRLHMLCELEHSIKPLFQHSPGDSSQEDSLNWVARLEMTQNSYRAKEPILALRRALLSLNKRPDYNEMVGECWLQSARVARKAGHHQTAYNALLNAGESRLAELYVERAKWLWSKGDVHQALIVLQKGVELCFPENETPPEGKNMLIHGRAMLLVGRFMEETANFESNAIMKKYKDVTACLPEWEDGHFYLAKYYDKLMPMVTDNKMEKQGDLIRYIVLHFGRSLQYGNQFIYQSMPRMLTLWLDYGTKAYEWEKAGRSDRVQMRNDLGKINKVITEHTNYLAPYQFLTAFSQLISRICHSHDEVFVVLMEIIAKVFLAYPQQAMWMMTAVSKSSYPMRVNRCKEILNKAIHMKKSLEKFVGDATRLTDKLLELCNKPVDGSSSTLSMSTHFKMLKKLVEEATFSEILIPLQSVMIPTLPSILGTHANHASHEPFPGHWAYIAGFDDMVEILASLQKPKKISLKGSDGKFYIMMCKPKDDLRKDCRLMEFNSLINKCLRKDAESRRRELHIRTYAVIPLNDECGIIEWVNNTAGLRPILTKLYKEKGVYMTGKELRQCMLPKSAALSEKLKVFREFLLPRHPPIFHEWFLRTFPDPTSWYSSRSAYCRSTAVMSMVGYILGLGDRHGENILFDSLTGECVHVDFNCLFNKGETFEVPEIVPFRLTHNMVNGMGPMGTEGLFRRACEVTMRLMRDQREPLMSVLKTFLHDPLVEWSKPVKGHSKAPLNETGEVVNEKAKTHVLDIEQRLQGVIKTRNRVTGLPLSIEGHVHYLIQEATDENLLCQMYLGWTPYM
Chain of full-length human ATR protein (Q8WXE1 other isoform, or with tags, fused parts or gaps partner): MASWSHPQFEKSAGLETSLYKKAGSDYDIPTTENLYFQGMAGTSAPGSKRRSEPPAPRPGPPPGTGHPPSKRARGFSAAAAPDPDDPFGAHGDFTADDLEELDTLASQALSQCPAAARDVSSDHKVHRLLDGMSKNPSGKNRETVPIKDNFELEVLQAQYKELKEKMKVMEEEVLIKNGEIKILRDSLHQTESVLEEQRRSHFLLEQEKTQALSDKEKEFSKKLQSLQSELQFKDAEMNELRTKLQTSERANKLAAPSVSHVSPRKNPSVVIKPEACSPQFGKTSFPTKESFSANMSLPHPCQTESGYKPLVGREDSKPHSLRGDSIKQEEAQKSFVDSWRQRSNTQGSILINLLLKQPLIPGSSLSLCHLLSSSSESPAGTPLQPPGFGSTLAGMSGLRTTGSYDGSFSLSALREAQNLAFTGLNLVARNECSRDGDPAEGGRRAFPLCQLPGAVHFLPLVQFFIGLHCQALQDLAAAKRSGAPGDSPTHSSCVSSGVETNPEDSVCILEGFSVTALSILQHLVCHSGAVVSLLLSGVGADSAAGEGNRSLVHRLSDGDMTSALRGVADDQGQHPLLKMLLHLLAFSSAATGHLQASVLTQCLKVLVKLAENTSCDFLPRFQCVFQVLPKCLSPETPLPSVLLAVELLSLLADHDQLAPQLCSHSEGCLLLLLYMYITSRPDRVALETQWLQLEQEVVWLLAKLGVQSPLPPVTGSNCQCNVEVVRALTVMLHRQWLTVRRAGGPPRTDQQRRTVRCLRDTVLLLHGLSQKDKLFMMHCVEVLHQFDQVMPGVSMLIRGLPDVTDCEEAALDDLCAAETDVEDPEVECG
(In general: TR-FRET usually uses a lanthanide donor and a delayed reading to cut background.)
Take `C[C@@H]1COCCN1c1cc(C(C)(C)O)c2ccnc(-c3ccn[nH]3)c2n1` [Example 128, 2-{2-[(3R)-3-methylmorpholin-4-yl]-8-(1H-pyrazol-5-yl)-1,7-naphthyridin-4-yl}propan-2-ol]: the IC50 turned out to be 32.6 nM. `CCC(O)(CC)c1cc(N2CCOC[C@H]2C)nc2c(-c3ccn[nH]3)nccc12` [Example 129, 3-{2-[(3R)-3-methylmorpholin-4-yl]-8-(1H-pyrazol-5-yl)-1,7-naphthyridin-4-yl}pentan-3-ol]: the IC50 was 35.3 nM. Same read-out and setting: under `C[C@@H]1COCCN1c1cc(-c2cncc(Cl)c2)c2ccnc(-c3ccn[nH]3)c2n1` [Example 130, 4-(5-chloropyridin-3-yl)-2-[(3R)-3-methylmorpholin-4-yl]-8-(1H-pyrazol-5-yl)-1,7-naphthyridine] stands 21.6 nM; under `C[C@@H]1COCCN1c1cc(-c2ccc(F)cc2N)c2ccnc(-c3ccn[nH]3)c2n1` [Example 131, 5-fluoro-2-{2-[(3R)-3-methylmorpholin-4-yl]-8-(1H-pyrazol-5-yl)-1,7-naphthyridin-4-yl}aniline], 23.1 nM; under `C[C@@H]1COCCN1c1cc(-c2cccc(S(C)(=O)=O)c2F)c2ccnc(-c3ccn[nH]3)c2n1` [Example 132, 4-[2-fluoro-3-(methylsulfonyl)phenyl]-2-[(3R)-3-methylmorpholin-4-yl]-8-(1H-pyrazol-5-yl)-1,7-naphthyridine], 23.7 nM. On the same count and under the same terms, the value for `C[C@@H]1COCCN1c1cc(-c2ccnn2C2COC2)c2ccnc(-c3ccn[nH]3)c2n1` [Example 133, 2-[(3R)-3-methylmorpholin-4-yl]-4-[1-(oxetan-3-yl)-1H-pyrazol-5-yl]-8-(1H-pyrazol-5-yl)-1,7-naphthyridine] was 27 nM. The same measure, in the same setting: the value for `C[C@@H]1COCCN1c1cc(-c2ccc(N3CCCC3)cc2F)c2ccnc(-c3ccn[nH]3)c2n1` [Example 134, 4-[2-fluoro-4-(pyrrolidin-1-yl)phenyl]-2-[(3R)-3-methylmorpholin-4-yl]-8-(1H-pyrazol-5-yl)-1,7-naphthyridine] was 34.3 nM; that for `COCc1noc(C)c1-c1cc(N2CCOC[C@H]2C)nc2c(-c3ccn[nH]3)nccc12` [Example 135, 4-[3-(methoxymethyl)-5-methyl-1,2-oxazol-4-yl]-2-[(3R)-3-methylmorpholin-4-yl]-8-(1H-pyrazol-5-yl)-1,7-naphthyridine] was 32.9 nM; that for `Cc1nnc(-c2cc(N3CCOC[C@H]3C)nc3c(-c4ccn[nH]4)nccc23)o1` [Example 136, 2-[(3R)-3-methylmorpholin-4-yl]-4-(5-methyl-1,3,4-oxadiazol-2-yl)-8-(1H-pyrazol-5-yl)-1,7-naphthyridine] was 35.8 nM.

Take `C[C@@H]1COCCN1c1cc(N=S2(=O)CCCC2)c2ccnc(-c3ccn[nH]3)c2n1` [Example 137, N-{2-[(3R)-3-methylmorpholin-44-yl]-8-(1H-pyrazol-5-yl)-1,7-naphthyridin-4-yl}tetrahydro-1H-1λ^4-thiophen-1-imine 1-oxide]: the IC50 stood at 26 nM.

Turning to `C[C@@H]1COCCN1c1cc(N=S(C)(=O)c2ccc(F)cc2)c2ccnc(-c3ccn[nH]3)c2n1` (stereo partly drawn) [Example 138, 4-{[(4-fluorophenyl)(methyl)oxido-λ^6-sulfanylidene]amino}-2-[(3R)-3-methylmorpholin-4-yl]-8-(1H-pyrazol-5-yl)-1,7-naphthyridine], the IC50 is 29 nM. Consider `C[C@@H]1COCCN1c1cc(N=S(C)(=O)c2ccccc2F)c2ccnc(-c3ccn[nH]3)c2n1` (stereo partly drawn) [Example 139, 4-{[(2-fluorophenyl)(methyl)oxido-λ^6-sulfanylidene]amino}-2-[(3R)-3-methylmorpholin-4-yl]-8-(1H-pyrazol-5-yl)-1,7-naphthyridine], for which the IC50 was determined as 41.7 nM. For the compound `C[C@@H]1COCCN1c1cc(P(C)(C)=O)c2ccnc(-c3ccn[nH]3)c2n1` [Example 142, 4-(dimethylphosphoryl)-2-[(3R)-3-methylmorpholin-4-yl]-8-(1H-pyrazol-5-yl)-1,7-naphthyridine], the IC50 is 44.1 nM. Still for that read-out and setting: under `CCP(=O)(CC)c1cc(N2CCOC[C@H]2C)nc2c(-c3ccn[nH]3)nccc12` [Example 143, 4-(diethylphosphoryl)-2-[(3R)-3-methylmorpholin-4-yl]-8-(1H-pyrazol-5-yl)-1,7-naphthyridine] stands 27.7 nM.

`CCOP(=O)(CC(C)C)c1cc(N2CCOC[C@H]2C)nc2c(-c3ccn[nH]3)nccc12` (stereo partly drawn) [Example 144, Ethyl isobutyl{2-[(3R)-3-methylmorpholin-4-yl]-8-(1H-pyrazol-5-yl)-1,7-naphthyridin-4-yl}phosphinate]: the IC50 stood at 75.1 nM. Same read-out and setting: under `C[C@@H]1COCCN1c1cc(N2CCOCC2)c2ccnc(-c3ccn[nH]3)c2n1` [Example 145, 2-[(3R)-3-methylmorpholin-4-yl]-4-(morpholin-4-yl)-8-(1H-pyrazol-5-yl)-1,7-naphthyridine] stands 18.2 nM; under `CC(C)Cn1nccc1-c1cc(N2CCOC[C@H]2C)nc2c(-c3ccn[nH]3)nccc12` [Example 146, 4-(1-isobutyl-1H-pyrazol-5-yl)-2-[(3R)-3-methylmorpholin-4-yl]-8-(1H-pyrazol-5-yl)-1,7-naphthyridine], 35.7 nM; under `C[C@@H]1COCCN1c1cc(-c2cnc(S(C)(=O)=O)c(F)c2)c2ccnc(-c3ccn[nH]3)c2n1` [Example 147, 4-[5-fluoro-6-(methylsulfonyl)pyridin-3-yl]-2-[(3R)-3-methylmorpholin-4-yl]-8-(1H-pyrazol-5-yl)-1,7-naphthyridine], 45.4 nM. Same read-out and setting: the value for `C[C@@H]1COCCN1c1cc(N2CCOCC2)nc2c(-c3ccn[nH]3)nccc12` [Example 148, 4-[(3R)-3-methylmorpholin-4-yl]-2-(morpholin-4-yl)-8-(1H-pyrazol-5-yl)-1,7-naphthyridine] was 47.9 nM; that for `Cc1cn[nH]c1-c1cc(N2CCOC[C@H]2C)nc2c(-c3ccn[nH]3)nccc12` [Example 149, 2-[(3R)-3-methylmorpholin-4-yl]-4-(4-methyl-1H-pyrazol-5-yl)-8-(1H-pyrazol-5-yl)-1,7-naphthyridine] was 48.4 nM. Take `C[C@@H]1COCCN1c1cc(-c2cc(S(C)(=O)=O)ccc2F)c2ccnc(-c3ccn[nH]3)c2n1` [Example 150, 4-[2-fluoro-5-(methylsulfonyl)phenyl]-2-[(3R)-3-methylmorpholin-4-yl]-8-(1H-pyrazol-5-yl)-1,7-naphthyridine]: the IC50 was found to be 50.3 nM. For the compound `CC(C)S(=O)(=O)c1ccc(-c2cc(N3CCOC[C@H]3C)nc3c(-c4ccn[nH]4)nccc23)cc1` [Example 151, 4-[4-(isopropylsulfonyl)phenyl]-2-[(3R)-3-methylmorpholin-4-yl]-8-(1H-pyrazol-5-yl)-1,7-naphthyridine], the IC50 came to 51.2 nM. Same read-out and setting: the value for `C[C@@H]1COCCN1c1cc(-c2cccc(F)n2)c2ccnc(-c3ccn[nH]3)c2n1` [Example 152, 4-(6-fluoropyridin-2-yl)-2-[(3R)-3-methylmorpholin-4-yl]-8-(1H-pyrazol-5-yl)-1,7-naphthyridine] was 51.8 nM; that for `CCn1cnc(-c2cc(N3CCOC[C@H]3C)nc3c(-c4ccn[nH]4)nccc23)c1` [Example 153, 4-(1-ethyl-1H-imidazol-4-yl)-2-[(3R)-3-methylmorpholin-4-yl]-8-(1H-pyrazol-5-yl)-1,7-naphthyridine] was 54.7 nM. `C[C@@H]1COCCN1c1cc(N2CCC[C@H]2C(N)=O)c2ccnc(-c3ccn[nH]3)c2n1` [Example 154, 1-{2-[(3R)-3-methylmorpholin-4-yl]-8-(1H-pyrazol-5-yl)-1,7-naphthyridin-4-yl}prolinamide]: the IC50 worked out at 55 nM. Still for that read-out and setting: under `C[C@@H]1COCCN1c1cc(-c2cccnc2N)c2ccnc(-c3ccn[nH]3)c2n1` [Example 155, 3-{2-[(3R)-3-methylmorpholin-4-yl]-8-(1H-pyrazol-5-yl)-1,7-naphthyridin-4-yl}pyridin-2-amine] stands 63.3 nM. On the same count and under the same terms, under `C[C@@H]1COCCN1c1cc(-c2ccnn2CC(F)(F)F)c2ccnc(-c3ccn[nH]3)c2n1` [Example 156, 2-[(3R)-3-methylmorpholin-4-yl]-8-(1H-pyrazol-5-yl)-4-[1-(2,2,2-trifluoroethyl)-1H-pyrazol-5-yl]-1,7-naphthyridine] stands 80.1 nM; under `C[C@@H]1COCCN1c1cc(N2CCN(C)C(=O)C2)c2ccnc(-c3ccn[nH]3)c2n1` [Example 157, 1-methyl-4-{2-[(3R)-3-methylmorpholin-4-yl]-8-(1H-pyrazol-5-yl)-1,7-naphthyridin-4-yl}piperazin-2-one], 91.8 nM; under `C[C@@H]1COCCN1c1cc(-c2ccn(CCF)n2)c2ccnc(-c3ccn[nH]3)c2n1` [Example 158, 4-[1-(2-fluoroethyl)-1H-pyrazol-3-yl]-2-[(3R)-3-methylmorpholin-4-yl]-8-(1H-pyrazol-5-yl)-1,7-naphthyridine], 13.5 nM.

As for `C[C@@H]1COCCN1c1cc(-c2ccnn2CCF)c2ccnc(-c3ccn[nH]3)c2n1` [Example 159, 4-[1-(2-fluoroethyl)-1H-pyrazol-5-yl]-2-[(3R)-3-methylmorpholin-4-yl]-8-(1H-pyrazol-5-yl)-1,7-naphthyridine], the half-maximal inhibitory concentration (IC50) was found to be 16.5 nM. For the compound `C[C@@H]1COCCN1c1cc(-c2ccn(CCO)n2)c2ccnc(-c3ccn[nH]3)c2n1` [Example 160, 2-(3-{2-[(3R)-3-methylmorpholin-4-yl]-8-(1H-pyrazol-5-yl)-1,7-naphthyridin-4-yl}-1H-pyrazol-1-yl)ethanol], the IC50 was 37.2 nM. On the same count and under the same terms, under `C[C@@H]1COCCN1c1cc(-c2ccn(CC(C)(C)O)n2)c2ccnc(-c3ccn[nH]3)c2n1` [Example 161, 2-methyl-1-(3-{2-[(3R)-3-methylmorpholin-4-yl]-8-(1H-pyrazol-5-yl)-1,7-naphthyridin-4-yl}-1H-pyrazol-1-yl)propan-2-ol] stands 62.6 nM; under `C[C@@H]1CN(c2cc(N3CCOCC3)nc3c(-c4ccn[nH]4)nccc23)CCO1` [Example 162, 4-[(2R)-2-methylmorpholin-4-yl]-2-(morpholin-4-yl)-8-(1H-pyrazol-5-yl)-1,7-naphthyridine], 100 nM.

The same assay, now with this note: tracer B, TR-FRET; read-out: ATR binding (tracer B) IC50.
For the compound `CC(C)S(=O)(=O)c1ccc(-c2cc(N3CCOC[C@H]3C)nc3c(-c4ccn[nH]4)nccc23)cc1` [Example 151, 4-[4-(isopropylsulfonyl)phenyl]-2-[(3R)-3-methylmorpholin-4-yl]-8-(1H-pyrazol-5-yl)-1,7-naphthyridine], the concentration for half-maximal inhibition (IC50) turned out to be 23.2 nM.
